The results in this text go back to PubChem BioAssay AID256 (DTP/NCI, 2004).

For the experiment, the system named is CD2F1 mice, L1210 leukemia ip, survival T/C. Description: NCI In Vivo Anticancer Drug Screen. Data for tumor model L1210 Leukemia (intraperitoneal) in CD2F1 (CDF1) mice. The note with it: endpoint: mean survival time, higher = longer survival. The method, boiled down:
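Ratio T/C, where T is the treated-group value and C the vehicle-dosed control value, from mice implanted with a transplantable tumor.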

[1] abbreviates: dose: 100.0 mg/kg/injection, schedule: Q01DX009 (ip), vehicle: saline.
Setting [2] is: dose: 200.0 mg/kg/injection, schedule: Q01DX009 (ip), vehicle: saline.

Structures are written as SMILES. Toxic doses and inconclusive results are not listed.

As to `N=C(N)SCc1c2ccccc2c(CSC(=N)N)c2ccccc12`, the T/C is 109 % of control (dose: 0.06 mg/kg/injection, schedule: Q#B X Z (ip), vehicle: saline); 121 % of control (dose: 0.13 mg/kg/injection, schedule: Q#B X Z (ip), vehicle: saline); 115 % of control (dose: 0.39 mg/kg/injection, schedule: Q01DX Z (ip), vehicle: saline); 121 % of control (dose: 0.78 mg/kg/injection, schedule: Q01DX Z (ip), vehicle: saline); 155 % of control (dose: 1.04 mg/kg/injection, schedule: Q#B X Z (ip), vehicle: saline); 160 % of control (dose: 2.08 mg/kg/injection, schedule: Q#B X Z (ip), vehicle: saline). Besides, the T/C was 151 % of control (dose: 3.13 mg/kg/injection, schedule: Q01DX Z (ip), vehicle: saline); 162 % of control (dose: 6.25 mg/kg/injection, schedule: Q01DX Z (ip), vehicle: saline); 119 % of control (dose: 8.33 mg/kg/injection, schedule: Q#B X Z (ip), vehicle: saline); 156 % of control (dose: 12.5 mg/kg/injection, schedule: Q01DX Z (ip), vehicle: saline); 98 % of control (dose: 16.66 mg/kg/injection, schedule: Q#B X Z (ip), vehicle: saline); 155 % of control (dose: 25.0 mg/kg/injection, schedule: Q01DX Z (ip), vehicle: saline). Besides, the T/C was 158 % of control (dose: 50.0 mg/kg/injection, schedule: Q01DX001 (ip), vehicle: saline); 178 % of control (dose: 50.0 mg/kg/injection, schedule: Q03HX008 (ip), vehicle: saline); 175 % of control (dose: 50.0 mg/kg/injection, schedule: Q03HX016 (ip), vehicle: saline); 151 % of control (dose: 50.0 mg/kg/injection, schedule: Q06HX004 (ip), vehicle: saline); 174 % of control (dose: 50.0 mg/kg/injection, schedule: Q08DX002 (ip), vehicle: saline); 173 % of control (dose: 50.0 mg/kg/injection, schedule: Q12HX002 (ip), vehicle: saline). Moreover, the T/C reads like this: (dose: 50.0 mg/kg/injection, schedule: Q12HX004 (ip), vehicle: saline) 189 % of control; (dose: 80.0 mg/kg/injection, schedule: Q01DX001 (ip), vehicle: saline) 168 % of control; (dose: 100.0 mg/kg/injection, schedule: Q01DX001 (ip), vehicle: saline) 193 % of control; under setting [1], 154 % of control; (dose: 100.0 mg/kg/injection, schedule: Q01DX Z (ip), vehicle: saline) 124 % of control; (dose: 100.0 mg/kg/injection, schedule: Q03HX008 (ip), vehicle: saline) 196 % of control. Further, the T/C runs as follows: (dose: 100.0 mg/kg/injection, schedule: Q03HX016 (ip), vehicle: saline) 194 % of control; (dose: 100.0 mg/kg/injection, schedule: Q08DX002 (ip), vehicle: saline) 220 % of control; (dose: 100.0 mg/kg/injection, schedule: Q12HX002 (ip), vehicle: saline) 239 % of control; (dose: 100.0 mg/kg/injection, schedule: Q12HX004 (ip), vehicle: saline) 224 % of control; (dose: 125.0 mg/kg/injection, schedule: Q01DX001 (ip), vehicle: saline) 113 % of control; (dose: 200.0 mg/kg/injection, schedule: Q01DX001 (ip), vehicle: saline) 227 % of control. In addition, the T/C is 106 % of control under setting [2]; 94 % of control (dose: 200.0 mg/kg/injection, schedule: Q01DX010 (oral), vehicle: saline); 88 % of control (dose: 200.0 mg/kg/injection, schedule: Q01DX Z (ip), vehicle: saline); 207 % of control (dose: 200.0 mg/kg/injection, schedule: Q03HX008 (ip), vehicle: saline); 204 % of control (dose: 200.0 mg/kg/injection, schedule: Q03HX016 (ip), vehicle: saline); 179 % of control (dose: 200.0 mg/kg/injection, schedule: Q06HX008 (ip), vehicle: saline). Besides, the T/C is, setting by setting: (dose: 200.0 mg/kg/injection, schedule: Q08DX002 (ip), vehicle: saline) 197 % of control; (dose: 200.0 mg/kg/injection, schedule: Q12HX002 (ip), vehicle: saline) 254 % of control; (dose: 200.0 mg/kg/injection, schedule: Q12HX004 (ip), vehicle: saline) 158 % of control; (dose: 320.0 mg/kg/injection, schedule: Q01DX001 (ip), vehicle: saline) 100 % of control; (dose: 400.0 mg/kg/injection, schedule: Q01DX010 (oral), vehicle: saline) 90 % of control; (dose: 400.0 mg/kg/injection, schedule: Q03HX016 (ip), vehicle: saline) 111 % of control. The T/C reads like this: (dose: 400.0 mg/kg/injection, schedule: Q06HX004 (ip), vehicle: saline) 183 % of control; (dose: 400.0 mg/kg/injection, schedule: Q06HX008 (ip), vehicle: saline) 152 % of control; (dose: 400.0 mg/kg/injection, schedule: Q08DX002 (ip), vehicle: saline) 152 % of control; (dose: 400.0 mg/kg/injection, schedule: Q12HX004 (ip), vehicle: saline) 118 % of control; (dose: 800.0 mg/kg/injection, schedule: Q01DX010 (oral), vehicle: saline) 88 % of control; (dose: 1000.0 mg/kg/injection, schedule: Q01DX001 (ip), vehicle: saline) 162 % of control.
Regarding `O=c1ccn(C2OC(CO)C(O)C2O)c(=O)[nH]1` (configuration not stated), the T/C by setting is: (dose: 12.5 mg/kg/injection, schedule: Q01DX005 (ip), vehicle: Klucel (hydroxypropylcellulose) (HPC)) 103 % of control; (dose: 25.0 mg/kg/injection, schedule: Q01DX005 (ip), vehicle: Klucel (hydroxypropylcellulose) (HPC)) 101 % of control; (dose: 50.0 mg/kg/injection, schedule: Q01DX005 (ip), vehicle: Klucel (hydroxypropylcellulose) (HPC)) 101 % of control; (dose: 100.0 mg/kg/injection, schedule: Q01DX005 (ip), vehicle: Klucel (hydroxypropylcellulose) (HPC)) 110 % of control; (dose: 200.0 mg/kg/injection, schedule: Q01DX005 (ip), vehicle: Klucel (hydroxypropylcellulose) (HPC)) 105 % of control.
For `O=P(O)(CO)CO`, the T/C reads like this: (dose: 50.0 mg/kg/injection, schedule: Q01DX009 (ip), vehicle: saline) 95 % of control; under setting [1], 101 % of control; under setting [2], 95 % of control.
Regarding `Cc1c(C)c2c(c(C)c1O)CCC(C)(CCCC(C)CCCC(C)CCCC(C)C)O2` (configuration not stated), the T/C is 101 % of control (dose: 100.0 mg/kg/injection, schedule: Q01DX009 (ip), vehicle: saline with Tween-80); 95 % of control (dose: 200.0 mg/kg/injection, schedule: Q01DX009 (ip), vehicle: saline with Tween-80); 98 % of control (dose: 400.0 mg/kg/injection, schedule: Q01DX009 (ip), vehicle: Klucel (hydroxypropylcellulose) (HPC)); 101 % of control (dose: 400.0 mg/kg/injection, schedule: Q01DX009 (ip), vehicle: saline with Tween-80); 96 % of control (dose: 800.0 mg/kg/injection, schedule: Q01DX009 (ip), vehicle: Klucel (hydroxypropylcellulose) (HPC)); 96 % of control (dose: 1200.0 mg/kg/injection, schedule: Q01DX009 (ip), vehicle: Klucel (hydroxypropylcellulose) (HPC)). In addition, the T/C (dose: 1600.0 mg/kg/injection, schedule: Q01DX009 (ip), vehicle: Klucel (hydroxypropylcellulose) (HPC)) was 90 % of control.
For the compound `O=C1c2ccccc2C(=O)N1Cl`, the T/C is 96 % of control (dose: 50.0 mg/kg/injection, schedule: Q01DX009 (ip), vehicle: Klucel (hydroxypropylcellulose) (HPC)); 100 % of control (dose: 50.0 mg/kg/injection, schedule: Q04DX003 (ip), vehicle: other); 89 % of control (dose: 100.0 mg/kg/injection, schedule: Q01DX009 (ip), vehicle: Klucel (hydroxypropylcellulose) (HPC)); 104 % of control (dose: 100.0 mg/kg/injection, schedule: Q04DX003 (ip), vehicle: other); 93 % of control (dose: 200.0 mg/kg/injection, schedule: Q01DX009 (ip), vehicle: Klucel (hydroxypropylcellulose) (HPC)); 110 % of control (dose: 200.0 mg/kg/injection, schedule: Q04DX003 (ip), vehicle: other).
Consider `CCC(=O)O[C@H]1CC[C@H]2[C@@H]3C[C@H](F)C4=CC(=O)CC[C@]4(C)[C@H]3CC[C@]12C`, for which the T/C (dose: 100.0 mg/kg/injection, schedule: Q04DX003 (ip), vehicle: saline) is 102 % of control; the T/C (dose: 200.0 mg/kg/injection, schedule: Q04DX003 (ip), vehicle: saline) is 95 % of control; the T/C (dose: 400.0 mg/kg/injection, schedule: Q04DX003 (ip), vehicle: saline) was 95 % of control.
